Active and inactive are the calls of the source.
Columns and labels:
[1] = molecular target: Tyrosine-protein kinase receptor TYRO3 (Homo sapiens, UniProt Q06418); format: functional;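 note: TYRO3 value obtained as one member of a kinome-wide profiling panel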
[2] = molecular target: Cyclin-dependent kinase 5 (Homo sapiens, UniProt Q00535); format: functional;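 note: CDK5 measured as one member of a kinase profiling panel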
[3] = molecular target: Platelet-derived growth factor receptor alpha (Homo sapiens, UniProt P16234); test: Navigating the Kinome. Panel member name: PDGFRA; format: functional
[4] = molecular target: Serine/threonine-protein kinase pim-1 (Homo sapiens, UniProt P11309); format: functional
Chain of Serine/threonine-protein kinase pim-1 (P11309 whole entry): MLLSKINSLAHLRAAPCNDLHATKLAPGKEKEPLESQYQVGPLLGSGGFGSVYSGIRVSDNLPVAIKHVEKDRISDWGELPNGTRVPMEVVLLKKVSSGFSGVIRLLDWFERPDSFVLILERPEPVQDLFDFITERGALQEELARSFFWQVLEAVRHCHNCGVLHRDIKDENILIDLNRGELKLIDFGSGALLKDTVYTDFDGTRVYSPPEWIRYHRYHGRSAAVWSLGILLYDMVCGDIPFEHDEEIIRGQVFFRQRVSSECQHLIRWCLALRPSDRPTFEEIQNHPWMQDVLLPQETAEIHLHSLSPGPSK

Aurora kinase A = Aurora kinase A (Homo sapiens, UniProt O14965); format: functional;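 note: value from the Navigating the Kinome kinase panel profiling, panel entry STK6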
[5] = molecular target: Homeodomain-interacting protein kinase 2 (Homo sapiens, UniProt Q9H2X6); format: functional;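 note: measured within a kinome-wide kinase profiling panel, HIPK2 being one panel member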
Chain of Homeodomain-interacting protein kinase 2 (Q9H2X6 whole entry): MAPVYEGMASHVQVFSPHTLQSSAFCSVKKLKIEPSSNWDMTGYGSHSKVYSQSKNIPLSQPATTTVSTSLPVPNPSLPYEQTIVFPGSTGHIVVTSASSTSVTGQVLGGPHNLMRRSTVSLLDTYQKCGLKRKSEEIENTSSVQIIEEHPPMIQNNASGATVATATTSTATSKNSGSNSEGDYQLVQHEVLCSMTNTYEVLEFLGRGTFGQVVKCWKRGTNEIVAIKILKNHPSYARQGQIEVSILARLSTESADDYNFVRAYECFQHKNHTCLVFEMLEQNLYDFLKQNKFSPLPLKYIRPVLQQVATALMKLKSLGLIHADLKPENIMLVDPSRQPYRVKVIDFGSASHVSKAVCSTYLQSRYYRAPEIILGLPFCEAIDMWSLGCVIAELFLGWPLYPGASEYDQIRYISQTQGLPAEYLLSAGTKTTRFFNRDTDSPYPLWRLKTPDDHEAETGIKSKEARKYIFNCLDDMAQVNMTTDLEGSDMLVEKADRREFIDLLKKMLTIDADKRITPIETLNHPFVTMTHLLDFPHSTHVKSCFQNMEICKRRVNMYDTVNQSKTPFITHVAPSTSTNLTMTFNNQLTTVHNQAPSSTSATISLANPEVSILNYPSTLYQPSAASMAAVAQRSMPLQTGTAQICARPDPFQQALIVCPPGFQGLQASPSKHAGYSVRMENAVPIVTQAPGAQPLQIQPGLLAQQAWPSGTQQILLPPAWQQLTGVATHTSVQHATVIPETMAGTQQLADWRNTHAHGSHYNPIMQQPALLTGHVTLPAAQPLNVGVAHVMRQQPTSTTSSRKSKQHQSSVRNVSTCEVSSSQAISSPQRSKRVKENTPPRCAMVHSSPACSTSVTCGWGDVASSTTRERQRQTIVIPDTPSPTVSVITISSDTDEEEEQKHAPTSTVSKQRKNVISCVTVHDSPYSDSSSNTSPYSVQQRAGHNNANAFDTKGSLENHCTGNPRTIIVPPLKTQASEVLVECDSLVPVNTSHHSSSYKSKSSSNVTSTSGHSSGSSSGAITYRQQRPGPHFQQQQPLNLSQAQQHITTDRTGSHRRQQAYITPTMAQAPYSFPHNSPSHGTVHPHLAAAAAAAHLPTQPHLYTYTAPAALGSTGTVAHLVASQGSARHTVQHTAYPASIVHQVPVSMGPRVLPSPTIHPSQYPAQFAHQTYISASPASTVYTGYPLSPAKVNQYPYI

[6] = molecular target: MAP kinase-interacting serine/threonine-protein kinase 2 (Homo sapiens, UniProt Q9HBH9); format: functional
Aurora kinase B = Aurora kinase B (Homo sapiens, UniProt Q96GD4); format: functional
[7] = molecular target: T1, Interleukin-1 receptor-associated kinase 4 (Homo sapiens, UniProt Q9NWZ3); format: functional
T1 sequence (Q9NWZ3 whole entry): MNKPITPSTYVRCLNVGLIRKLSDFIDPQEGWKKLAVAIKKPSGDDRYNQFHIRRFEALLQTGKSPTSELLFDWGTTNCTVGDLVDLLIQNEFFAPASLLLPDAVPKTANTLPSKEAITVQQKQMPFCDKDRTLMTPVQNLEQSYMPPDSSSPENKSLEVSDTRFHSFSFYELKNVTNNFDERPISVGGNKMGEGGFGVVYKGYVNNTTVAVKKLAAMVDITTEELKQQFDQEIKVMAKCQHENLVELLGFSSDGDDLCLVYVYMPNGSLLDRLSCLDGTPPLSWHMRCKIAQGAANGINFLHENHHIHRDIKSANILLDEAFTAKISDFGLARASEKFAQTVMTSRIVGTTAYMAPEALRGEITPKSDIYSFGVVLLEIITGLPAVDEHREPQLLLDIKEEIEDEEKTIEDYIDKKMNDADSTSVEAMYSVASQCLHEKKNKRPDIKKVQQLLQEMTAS

[8] = molecular target: Glycogen synthase kinase-3 beta (Homo sapiens, UniProt P49841); format: functional;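 note: value comes from a broad kinome profiling panel, with GSK3B as the panel member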
Chain of Glycogen synthase kinase-3 beta (P49841 whole entry): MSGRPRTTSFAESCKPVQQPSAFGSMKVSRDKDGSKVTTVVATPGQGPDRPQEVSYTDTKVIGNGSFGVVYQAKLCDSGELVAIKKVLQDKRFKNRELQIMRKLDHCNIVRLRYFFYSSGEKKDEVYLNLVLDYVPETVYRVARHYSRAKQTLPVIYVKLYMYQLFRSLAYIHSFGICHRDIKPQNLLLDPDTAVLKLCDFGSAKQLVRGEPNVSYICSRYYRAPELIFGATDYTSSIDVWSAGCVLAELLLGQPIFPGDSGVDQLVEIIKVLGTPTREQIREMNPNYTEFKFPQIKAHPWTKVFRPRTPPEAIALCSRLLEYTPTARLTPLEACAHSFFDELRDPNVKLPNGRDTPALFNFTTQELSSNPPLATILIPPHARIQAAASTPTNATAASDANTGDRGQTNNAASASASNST

[9] = molecular target: cAMP-dependent protein kinase catalytic subunit alpha (Homo sapiens, UniProt P17612); format: functional
[10] = molecular target: Dual specificity protein kinase CLK4 (Homo sapiens, UniProt Q9HAZ1); format: functional
Chain of Dual specificity protein kinase CLK4 (Q9HAZ1 whole entry): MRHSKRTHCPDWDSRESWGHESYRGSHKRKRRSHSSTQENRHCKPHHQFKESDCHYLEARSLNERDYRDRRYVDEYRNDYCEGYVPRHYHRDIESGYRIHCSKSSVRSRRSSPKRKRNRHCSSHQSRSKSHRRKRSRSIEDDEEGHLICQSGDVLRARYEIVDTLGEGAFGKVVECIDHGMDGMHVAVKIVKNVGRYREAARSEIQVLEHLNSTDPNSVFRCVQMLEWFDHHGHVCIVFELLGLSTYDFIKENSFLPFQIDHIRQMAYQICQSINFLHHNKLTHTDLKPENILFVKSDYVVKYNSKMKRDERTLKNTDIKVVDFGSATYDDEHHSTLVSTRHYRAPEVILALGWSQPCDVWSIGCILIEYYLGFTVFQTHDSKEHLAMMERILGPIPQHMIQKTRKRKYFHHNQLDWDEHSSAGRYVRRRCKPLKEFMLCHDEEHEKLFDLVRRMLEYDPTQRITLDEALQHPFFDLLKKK

[11] = molecular target: Mitogen-activated protein kinase kinase kinase kinase 4 (Homo sapiens, UniProt O95819); format: functional
Chain of Mitogen-activated protein kinase kinase kinase kinase 4 (O95819 whole entry, the tested form may be a part): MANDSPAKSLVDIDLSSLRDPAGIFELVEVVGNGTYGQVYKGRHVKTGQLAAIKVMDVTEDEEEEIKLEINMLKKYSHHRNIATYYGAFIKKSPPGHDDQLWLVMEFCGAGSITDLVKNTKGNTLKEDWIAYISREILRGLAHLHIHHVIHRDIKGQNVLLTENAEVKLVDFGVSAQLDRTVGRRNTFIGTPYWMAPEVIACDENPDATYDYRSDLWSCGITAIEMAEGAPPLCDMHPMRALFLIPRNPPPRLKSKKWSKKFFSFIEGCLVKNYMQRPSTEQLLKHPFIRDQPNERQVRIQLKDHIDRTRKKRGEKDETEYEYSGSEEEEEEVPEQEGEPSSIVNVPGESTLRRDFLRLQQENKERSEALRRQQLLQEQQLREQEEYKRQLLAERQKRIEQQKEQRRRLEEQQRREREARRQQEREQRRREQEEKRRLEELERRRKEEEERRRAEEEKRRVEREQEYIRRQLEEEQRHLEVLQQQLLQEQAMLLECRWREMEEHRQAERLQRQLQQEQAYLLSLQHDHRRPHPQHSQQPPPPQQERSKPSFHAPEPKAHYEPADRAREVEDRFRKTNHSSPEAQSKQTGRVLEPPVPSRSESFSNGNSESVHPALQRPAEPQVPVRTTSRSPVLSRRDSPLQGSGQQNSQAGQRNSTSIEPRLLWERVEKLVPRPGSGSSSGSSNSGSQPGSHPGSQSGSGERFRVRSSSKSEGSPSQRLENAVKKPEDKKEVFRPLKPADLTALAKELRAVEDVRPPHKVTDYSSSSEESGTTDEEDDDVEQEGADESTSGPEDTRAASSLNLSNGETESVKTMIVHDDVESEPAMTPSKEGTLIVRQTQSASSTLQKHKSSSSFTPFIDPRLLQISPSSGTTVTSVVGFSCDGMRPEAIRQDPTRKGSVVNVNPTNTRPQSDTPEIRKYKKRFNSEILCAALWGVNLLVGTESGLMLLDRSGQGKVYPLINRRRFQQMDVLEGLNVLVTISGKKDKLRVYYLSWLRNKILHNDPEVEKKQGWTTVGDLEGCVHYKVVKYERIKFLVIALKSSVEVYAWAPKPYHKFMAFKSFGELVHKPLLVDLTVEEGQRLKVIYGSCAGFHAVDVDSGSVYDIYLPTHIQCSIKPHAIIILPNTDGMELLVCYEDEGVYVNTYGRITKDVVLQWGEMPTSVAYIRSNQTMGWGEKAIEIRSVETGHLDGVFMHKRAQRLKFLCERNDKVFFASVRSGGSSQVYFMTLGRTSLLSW

[12] = molecular target: T2, RNA-binding protein pos-1 (Caenorhabditis elegans, UniProt G5EF15); test: inhibitors of POS-1/mex-3 RNA binding, dose response, biochemical, fluorescence polarization (AID 1964);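 note: purified POS-1 fused to maltose binding protein made in E. coli; potency of compounds blocking POS-1 binding to fluorescent RNA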
T2 sequence (G5EF15 whole entry): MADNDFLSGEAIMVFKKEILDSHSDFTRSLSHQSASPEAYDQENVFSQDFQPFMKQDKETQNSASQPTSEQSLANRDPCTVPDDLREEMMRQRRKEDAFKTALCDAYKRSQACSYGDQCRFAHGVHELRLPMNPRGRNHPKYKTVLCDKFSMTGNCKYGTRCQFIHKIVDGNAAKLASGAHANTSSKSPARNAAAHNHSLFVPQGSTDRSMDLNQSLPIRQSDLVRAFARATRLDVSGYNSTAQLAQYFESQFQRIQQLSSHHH

[13] = molecular target: T3, Zinc finger protein mex-5 (Caenorhabditis elegans, UniProt Q9XUB2); test: MEX-5/TCR-2 RNA interaction inhibitors, dose response, biochemical, C. elegans, fluorescence polarization (AID 1960)
T3 sequence (Q9XUB2 whole entry): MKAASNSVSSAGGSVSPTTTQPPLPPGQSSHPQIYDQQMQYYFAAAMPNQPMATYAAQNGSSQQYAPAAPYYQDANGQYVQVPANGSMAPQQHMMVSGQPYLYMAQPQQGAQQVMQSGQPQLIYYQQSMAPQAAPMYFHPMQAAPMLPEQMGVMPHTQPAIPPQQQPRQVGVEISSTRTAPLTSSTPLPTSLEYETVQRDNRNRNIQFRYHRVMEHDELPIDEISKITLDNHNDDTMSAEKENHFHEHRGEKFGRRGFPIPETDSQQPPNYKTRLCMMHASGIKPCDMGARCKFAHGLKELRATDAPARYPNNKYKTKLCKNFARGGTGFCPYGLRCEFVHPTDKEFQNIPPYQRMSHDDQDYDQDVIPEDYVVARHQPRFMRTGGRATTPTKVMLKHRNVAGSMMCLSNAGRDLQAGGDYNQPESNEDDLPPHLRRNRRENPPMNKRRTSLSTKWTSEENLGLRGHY

[14] = molecular target: T4, Corticotropin-releasing factor receptor 2/Corticotropin-releasing factor-binding protein (Homo sapiens, UniProt P24387+Q13324); test: activators of CRF receptor 2 with binding protein – uHTS hits, confirmation (AID 602473); format: functional; details: read-out: EC50_Mean
T4 sequence (Q13324 whole entry): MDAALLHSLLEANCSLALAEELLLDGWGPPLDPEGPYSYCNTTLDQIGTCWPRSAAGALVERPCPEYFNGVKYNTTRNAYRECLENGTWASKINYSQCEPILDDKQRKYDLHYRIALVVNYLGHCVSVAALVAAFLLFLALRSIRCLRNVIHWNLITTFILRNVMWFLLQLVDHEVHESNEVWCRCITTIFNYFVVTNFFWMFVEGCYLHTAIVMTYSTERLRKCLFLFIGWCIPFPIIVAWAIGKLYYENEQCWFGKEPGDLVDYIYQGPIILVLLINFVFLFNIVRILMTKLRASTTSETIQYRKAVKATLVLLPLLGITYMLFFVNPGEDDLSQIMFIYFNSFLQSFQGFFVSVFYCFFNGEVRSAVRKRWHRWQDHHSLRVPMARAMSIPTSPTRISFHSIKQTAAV
T4 sequence (P24387 whole entry): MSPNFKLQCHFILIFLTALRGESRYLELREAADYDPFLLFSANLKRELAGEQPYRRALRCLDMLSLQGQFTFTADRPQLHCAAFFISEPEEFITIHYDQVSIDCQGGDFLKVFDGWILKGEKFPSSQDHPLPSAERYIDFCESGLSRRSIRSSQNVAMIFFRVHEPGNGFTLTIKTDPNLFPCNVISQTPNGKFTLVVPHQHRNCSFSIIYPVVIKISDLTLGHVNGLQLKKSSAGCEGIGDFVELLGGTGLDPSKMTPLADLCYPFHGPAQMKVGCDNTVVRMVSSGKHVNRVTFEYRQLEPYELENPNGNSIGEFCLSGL

[15] = molecular target: Botulinum neurotoxin type A (Clostridium botulinum (strain Hall / ATCC 3502 / NCTC 13319 / Type A), UniProt P0DPI1); test: High-throughput multiplex microsphere dose response for inhibitors of toxin protease, specifically Botulinum neurotoxin light chain A protease, compounds from Cherry Pick 01.; format: functional; details: read-out: EC50_MICROM
[16] = molecular target: Botulinum neurotoxin type F (Clostridium botulinum, UniProt P30996); test: High-throughput multiplex microsphere dose response for inhibitors of toxin protease, specifically Botulinum neurotoxin light chain F protease, compounds from Cherry Pick 01.; format: functional; details: read-out: EC50_MICROM
Lethal factor = Lethal factor (Bacillus anthracis, UniProt P15917); test: High-throughput multiplex microsphere dose response for inhibitors of toxin protease, specifically Lethal Factor protease, compounds from Cherry Pick 01.; format: functional; details: read-out: EC50_MICROM
[17] = molecular target: Cell division cycle 7-related protein kinase (Homo sapiens, UniProt O00311); format: functional;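 note: value obtained from a kinome-wide kinase panel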
[18] = molecular target: Cyclin-dependent kinase 7 (Homo sapiens, UniProt P50613); format: functional;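 note: value comes from a kinome-wide kinase profiling panel in which CDK7 is one member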
Chain of Cyclin-dependent kinase 7 (P50613 whole entry): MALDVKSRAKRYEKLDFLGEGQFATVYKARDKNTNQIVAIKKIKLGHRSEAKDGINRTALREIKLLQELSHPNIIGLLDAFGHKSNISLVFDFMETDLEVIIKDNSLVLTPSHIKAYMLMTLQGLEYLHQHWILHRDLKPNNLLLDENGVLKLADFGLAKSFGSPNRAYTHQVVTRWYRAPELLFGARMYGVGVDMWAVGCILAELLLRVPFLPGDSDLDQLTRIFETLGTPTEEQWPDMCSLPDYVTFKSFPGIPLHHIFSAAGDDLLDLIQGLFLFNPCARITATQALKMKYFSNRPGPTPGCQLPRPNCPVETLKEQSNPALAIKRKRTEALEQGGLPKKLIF

[19] = molecular target: Cyclin-dependent kinase 9 (Homo sapiens, UniProt P50750); format: functional;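 note: value from the CDK9 entry of a kinome-spanning kinase panel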
[20] = molecular target: Glycogen synthase kinase-3 alpha (Homo sapiens, UniProt P49840); format: functional;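 note: GSK3A result taken from a broad kinome-wide kinase panel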
Chain of Glycogen synthase kinase-3 alpha (P49840 whole entry): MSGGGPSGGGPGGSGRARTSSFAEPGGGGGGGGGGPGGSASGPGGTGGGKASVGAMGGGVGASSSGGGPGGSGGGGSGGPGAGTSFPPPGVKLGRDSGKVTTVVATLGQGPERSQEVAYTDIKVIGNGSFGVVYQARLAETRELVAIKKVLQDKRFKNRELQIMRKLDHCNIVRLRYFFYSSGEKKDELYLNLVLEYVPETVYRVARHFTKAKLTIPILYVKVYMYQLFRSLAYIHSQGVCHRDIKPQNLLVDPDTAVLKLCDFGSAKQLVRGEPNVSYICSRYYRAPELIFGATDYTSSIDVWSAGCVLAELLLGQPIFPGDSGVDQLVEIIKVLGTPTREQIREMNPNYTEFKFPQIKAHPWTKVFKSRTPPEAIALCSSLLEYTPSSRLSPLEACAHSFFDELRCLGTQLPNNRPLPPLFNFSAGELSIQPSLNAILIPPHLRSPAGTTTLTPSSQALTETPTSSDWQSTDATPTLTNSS

[21] = molecular target: Dual specificity tyrosine-phosphorylation-regulated kinase 1A (Homo sapiens, UniProt Q13627); format: functional;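 note: measured against DYRK1A as one member of a broad kinome profiling panel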
[22] = molecular target: High affinity nerve growth factor receptor (Homo sapiens, UniProt P04629); format: functional;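 note: NTRK1 tested as one member of a kinome-wide profiling panel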
[23] = molecular target: Inhibitor of nuclear factor kappa-B kinase subunit epsilon (Homo sapiens, UniProt Q14164); test: Navigating the Kinome. Panel member name: IKBKE; format: functional
[24] = molecular target: ALK tyrosine kinase receptor (Homo sapiens, UniProt Q9UM73); format: functional;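 note: ALK tested as one member of a kinase panel screen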
[25] = molecular target: Death-associated protein kinase 3 (Homo sapiens, UniProt O43293); format: functional;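 note: measured as one member of a kinome-wide profiling panel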
Activin receptor type-1 = Activin receptor type-1 (Homo sapiens, UniProt Q04771); test: Navigating the Kinome. Panel member name: ACVR1; format: functional
Chain of Activin receptor type-1 (Q04771 whole entry): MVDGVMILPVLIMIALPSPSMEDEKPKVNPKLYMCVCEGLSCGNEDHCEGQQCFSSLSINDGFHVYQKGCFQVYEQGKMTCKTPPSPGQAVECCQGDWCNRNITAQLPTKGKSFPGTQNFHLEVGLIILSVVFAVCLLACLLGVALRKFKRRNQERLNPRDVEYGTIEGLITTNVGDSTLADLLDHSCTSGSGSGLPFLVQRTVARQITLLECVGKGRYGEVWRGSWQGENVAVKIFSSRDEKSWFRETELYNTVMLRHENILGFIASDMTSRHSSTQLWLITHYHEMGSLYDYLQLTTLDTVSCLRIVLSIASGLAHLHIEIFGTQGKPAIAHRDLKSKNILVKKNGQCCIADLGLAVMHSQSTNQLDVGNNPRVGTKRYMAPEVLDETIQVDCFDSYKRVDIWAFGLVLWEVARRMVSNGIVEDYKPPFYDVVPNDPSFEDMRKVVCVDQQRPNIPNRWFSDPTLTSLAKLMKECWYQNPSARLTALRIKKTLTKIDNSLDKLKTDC

[26] = molecular target: Mitogen-activated protein kinase 8 (Homo sapiens, UniProt P45983); format: functional;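 note: value comes from one member of a kinome-wide kinase profiling panel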
[27] = molecular target: Serine/threonine-protein kinase PAK 4 (Homo sapiens, UniProt O96013); format: functional;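 note: value obtained within a kinome profiling panel in which PAK4 was one of the panel members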
[28] = molecular target: Tyrosine-protein kinase JAK3 (Homo sapiens, UniProt P52333); format: functional
[29] = molecular target: Serine/threonine-protein kinase TAO1 (Homo sapiens, UniProt Q7L7X3); format: functional
[30] = molecular target: G protein-coupled receptor kinase 5 (Homo sapiens, UniProt P34947); test: Navigating the Kinome. Panel member name: GPRK5; format: functional
[31] = molecular target: Tyrosine-protein kinase Fyn (Homo sapiens, UniProt P06241); format: functional
[32] = molecular target: Macrophage-stimulating protein receptor (Homo sapiens, UniProt Q04912); test: Navigating the Kinome. Panel member name: MST1R; format: functional
[33] = molecular target: Calcium/calmodulin-dependent protein kinase type II subunit alpha (Homo sapiens, UniProt Q9UQM7); test: Navigating the Kinome. Panel member name: CAMK2A; format: functional
[34] = molecular target: Cyclin-dependent kinase 19 (Homo sapiens, UniProt Q9BWU1); test: Navigating the Kinome. Panel member name: CDC2L6; format: functional

CC(=O)n1nc(N)c2ccc(Br)cc21
Ki [1]: 2.51 µM (active) | Ki [2]: 1.58 µM (active) | Ki [3]: 2.51 µM (active)

Cc1ccc(Nc2nccc(Nc3ccccc3C(=O)O)n2)cc1F
Ki [4]: 0.158 µM (active) | Ki (Aurora kinase A): 0.0158 µM (active) | Ki [5]: 0.00631 µM (active) | Ki [6]: 0.251 µM (active) | Ki (Aurora kinase B): 0.00501 µM (active) | Ki [7]: 3.98 µM (active) | Ki [8]: 0.00316 µM (active) | Ki [9]: > 7.94 µM (inactive) | Ki [10]: 0.0794 µM (active) | Ki [11]: 0.2 µM (active)

O=c1c(/C=C(\O)c2ccccc2)nc2ccccc2n1-c1ccccc1
EC50 [12]: 78.2 µM (inconclusive) | EC50 [13]: 6.1 µM (inconclusive) | EC50 [14]: 11.6 µM (active) | EC50 [15]: 20 µM (inactive) | EC50 [16]: 20 µM (inactive) | EC50 (Lethal factor): 20 µM (inactive)

COCCNc1cc(-c2c[nH]c3ncccc23)cc(Cl)n1
Ki [4]: 0.794 µM (active) | Ki [17]: 0.002 µM (active) | Ki [5]: 0.0631 µM (active) | Ki [7]: 3.98 µM (active) | Ki [18]: 0.158 µM (active) | Ki [8]: 0.126 µM (active) | Ki [19]: 0.2 µM (active) | Ki [9]: 0.158 µM (active)

COc1nc(N)c(C#N)c(-c2ccc(Cl)cc2Cl)c1C#N
Ki [20]: 2.51 µM (active) | Ki [8]: 2.51 µM (active) | Ki [10]: 7.94 µM (active) | Ki [21]: 5.01 µM (active)

Nc1ncnc2c1N=C(c1ccc(NC(=O)Nc3ccc(F)c(C(F)(F)F)c3)cc1)CCN2
Ki [22]: 0.126 µM (active) | Ki [23]: 3.16 µM (active)

CN(C)c1ccc(NC(=O)CC2Nc3ccccc3NC2=O)cc1 (stereo unspecified)
Ki [24]: > 6.31 µM (inactive) | Ki [25]: > 5.01 µM (inactive) | Ki (Activin receptor type-1): > 3.98 µM (inactive) | Ki [26]: > 5.01 µM (inactive) | Ki [4]: > 6.31 µM (inactive) | Ki [27]: > 5.01 µM (inactive) | Ki [28]: > 5.01 µM (inactive) | Ki [29]: > 6.31 µM (inactive) | Ki [20]: > 3.98 µM (inactive) | Ki [30]: > 3.98 µM (inactive) | Ki [31]: > 6.31 µM (inactive) | Ki [18]: > 3.98 µM (inactive) | Ki [11]: > 5.01 µM (inactive) | Ki [32]: 0.398 µM (active) | Ki [33]: > 3.98 µM (inactive)

O=C1CC(c2ccccc2)Cc2[nH]c3cc(Cl)ccc3c(=O)c21 (stereo unspecified)
Ki [4]: 2.51 µM (active) | Ki [34]: > 100 µM (inactive) | Ki [10]: 3.98 µM (active)

— ChEMBL document CHEMBL1201862, “PubChem BioAssay data set” (2004)
